From publication PMC12276035, “Novel Para‐Phenylenediamine‐Based Derivatives as Receptor Tyrosine Kinase‐like Orphan Receptor 1 (ROR1) Inhibitors: An In Vitro Preliminary Characterization” (Chemmedchem, 2025)
Like-named read-outs stand apart in the source and are kept apart here.

How the values were obtained:
ROR1 kinase domain = target: T1, ROR1 kinase domain (Homo sapiens, UniProt Q01973); test: SPR assay on ROR1 kinase domain; type: binding
T1 construct: recombinant human ROR1 protein (aa 453‐783, His&GST Tag); His; GST; purchased Elabscience
T1 sequence (Q01973 453-783): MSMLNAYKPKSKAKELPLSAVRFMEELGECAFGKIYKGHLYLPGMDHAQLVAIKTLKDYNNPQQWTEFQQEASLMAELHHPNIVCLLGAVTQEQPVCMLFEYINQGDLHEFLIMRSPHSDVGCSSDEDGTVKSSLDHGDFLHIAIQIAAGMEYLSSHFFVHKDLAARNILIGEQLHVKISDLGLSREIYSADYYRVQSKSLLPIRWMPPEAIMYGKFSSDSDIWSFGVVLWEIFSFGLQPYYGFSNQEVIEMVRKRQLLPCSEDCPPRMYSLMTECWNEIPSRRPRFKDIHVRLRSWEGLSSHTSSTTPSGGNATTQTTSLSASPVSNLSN
Experimental: We performed molecular docking experiments to explore the binding mode of novel derivatives using the crystallographic structure of the protein co‐complexed with ponatinib, a known inhibitor of ROR1 (PDB code: 6TU9).^[ [30] ^] […] To evaluate the affinity of the synthesized molecules (10, 13, 14, 17–21, 26–29) for the protein counterpart, SPR assay was performed against kinase domain ROR1. Protein immobilization was achieved using the amide coupling method, and the molecules were tested at 10 different concentrations, ranging from 0 to 100 μM. Ponatinib was used as a positive control^[ [30] ^] (Table 1 ).
SPR spectroscopy analyses were conducted to evaluate the binding affinity of the synthesized compounds against ROR1 receptor using a Biacore T200 optical biosensor equipped with research‐grade CM5 sensor chips (Cytiva, Marlborough, USA). ROR1 kinase domain was immobilized on the CM5 sensor chip surface following standard amine‐coupling protocols. Specifically, kinasic domain was immobilized at pH 4.5 10 mM CH3COONa using a flow rate of 10 μL min^−1, achieving a density of around 20 kRU.
For the experiments, surfaces of ROR1, along with an unmodified reference surface, were prepared for simultaneous analyses. […] The compounds were injected in a series of concentrations (1:2 dilution, 10 different concentrations), spanning from 0 to 100 μM. The concentration series were prepared in 96‐well plates. SPR experiments were conducted at 25 °C, with a flow rate of 20 μL min^−1, allowing for 90 s of association monitoring and 400 s of dissociation monitoring. Changes in mass, reflective of the binding response, were recorded as resonance units (RU). K D values were determined using the Biaevaluation software performing a global fit of the double‐referenced association and dissociation data to a 1:1 interaction model^[ [43] ^] (see Figure S38, Supporting Information).

SH‐SY5Y cells = test: MTT cell viability assay, SH‐SY5Y; type: cell-based; details: Homo sapiens, cytotoxicity, treated for 72 h, read-out: EC50 ± SD SH‐SY5Y
Experimental: (§1) Cytotoxicity studies, assessing the activity of the synthetized compounds, were performed only on the molecules showing the best binding profile in the SPR assay. MTT test was performed on two cell lines known for overexpressing ROR1, particularly MTT assays were conducted on JeKo‐1 (human mantle cell lymphoma) and SH‐SY5Y (neuroblastoma), exposing them to different concentrations of compounds for 72 h (Table 2 ). […] This increased effectiveness is likely due to the high expression of the target protein in leukemia and other hematologic malignancies. […] A key structural difference in 18 and 19 compared to active compounds is the absence of the trifluoromethyl group on the aromatic ring. Indeed, the removal of the trifluoromethyl group (18) or the incorporation of an electron‐donating substituent (19) alters the interaction with the ATP‐binding pocket.
The neuroblastoma SH‐SY5Y cells, a human neuroblastoma cell line of neural crest origin, were obtained from ATCC and were grown in DMEM supplemented with 10% v/v fetal bovine serum, 2 mM L‐glutamine, 100 U mL^−1 penicillin, and 0.1 mg mL^−1 streptomycin.
(§2) Cell viability was established by measuring mitochondrial metabolic activity with MTT. In brief, SH‐SY5Y (20 × 10^3 cells/well) and JeKo‐1 (10 × 10^3 cells/well) were plated into 96‐well plates for 24 h, then the compounds (1.56–50 μM) were added. […], cells were replaced with a fresh medium containing 0.5 mg mL^−1 MTT.^[ [45] ^] Cells were incubated for 1–3 h at 37 °C, then the medium was discarded, and formazan blue crystals in the cells dissolved with 100 μL per well of a solution containing isopropanol/HCl 0.1 M. The absorbance was measured at 570 nm using a microplate reader (Multiskan Go, Thermo Scientific, Waltham, MA, USA). Cell viability was expressed as a percentage relative to the untreated cells cultured in medium with 0.1% DMSO and set to 100%, whereas 10% DMSO was used as positive control and set to 0% of viability. The EC50 values were calculated using GraphPad Prism 8.0 software by nonlinear regression of dose‐response inhibition.

JeKo‐1 cells [1] = test: MTT cell viability assay, JeKo‐1; type: cell-based; details: Homo sapiens, cytotoxicity, treated for 72 h, read-out: EC50 ± SD JeKo‐1
Experimental: as §1
The JeKo‐1 mantle cell lymphoma (MCL) cell line, derived from mantle cell lymphoma of B‐cell lineage, was obtained from ATCC and was grown in RPMI supplemented with 10% v/v fetal bovine serum, 2 mM L‐glutamine, 100 U mL^−1 penicillin, and 0.1 mg mL^−1 streptomycin.
as §2

JeKo‐1 cells [2] = test: Annexin V‐FITC/PI staining apoptosis, flow cytometry; type: cell-based, human; details: JeKo‐1, 20 μM, 72 h, early and late apoptosis
From the text: This observation aligns with previous studies reporting that ROR1 is highly expressed in B‐cell malignancies, including mantle cell lymphoma, where it plays a crucial role in survival signaling and resistance to apoptosis.^[ [10], [32] ^] Given the higher susceptibility of JeKo‐1 cells to the inhibitor, we selected this model for further apoptotic analysis. However, for completeness, apoptotic data for the SH‐SY5Y cell line are also provided in the Supporting Information (Figure S39, Supporting Information). Specifically, cells were incubated with compounds 17, 20, or 29 (20 μM) for 72 h and a flow cytometry analysis using Annexin V/PI staining was performed. After treatment, a very strong increase in the apoptotic response was observed, in both early and late apoptotic populations compared to the negative control (Figure 4 ). […] These findings are in accordance with the literature and further support the potential of ROR1 inhibition in promoting cell death in mantle cell lymphoma.^[ [33] ^]
Figure 4 Proapoptotic activity of compounds 17, 20, and 29 (20 μM) on JeKo‐1 cells treated for 72 h. A) Representative flow cytometry plots using Annexin V‐FITC/PI staining for apoptosis. B) Related quantitative analysis is reported. Data are expressed as a percentage of live, apoptotic, and necrotic cells. Results are shown as mean ± standard deviation (SD) from three independent experiments. *** denote p < 0.001 versus Ctrl.
Apoptosis of the cells was assessed using annexin V‐FITC/PI reagents. JeKo‐1 cells (60 × 10^3 cells/well) were seeded into 24‐well plates and incubated for 72 h with compounds (20 and 10 μM). After treatment, the collected cells were resuspended in a 100 μL assay buffer, then 5 Annexin V‐FITC and 1 PI reagents were added following incubation for 20 min at room temperature according to the manufacturer's protocol (Dead Cell Apoptosis Kits with Annexin V for Flow Cytometry, Thermo Fisher Scientific). Cells were analyzed with a Becton Dickinson FACScan flow cytometer using the Cell Quest software, version 4 (Franklin Lakes, NJ, USA).^[ [46] ^]

[3] = SPR, KD ± SD, 0 to 100 μM, 25 °C, n.b. = no binding
[4] = SPR, KD ± SD, 0 to 100 μM, 25 °C, n.b. = no binding, read-out: Kinase domain KD

Row | Kinase domain KD (ROR1 kinase domain; [3]) | Kd (ROR1 kinase domain; [4]) | Compound | EC50 (SH‐SY5Y cells) | EC50 (JeKo‐1 cells [1]) | also measured
1 | n.b. |  | N#CCCNc1ccc(NC(=O)NCc2ccc(-c3ccccc3)cc2)c(C(F)(F)F)c1 [Compound 10] |  |  | 
2 | n.b. |  | O=C(NCc1ccc(-c2ccccc2)cc1)Nc1ccc(NCc2ccncc2)cc1C(F)(F)F [Compound 13] |  |  | 
3 | n.b. |  | N#CCCNc1ccc(NC(=O)NCc2ccc(C(F)(F)F)cc2)cc1 [Compound 14] |  |  | 
4 |  | 18.4 ± 3.14 µM | O=C(NCc1ccc(-c2ccccc2)cc1)Nc1ccc(NCC2CCNCC2)cc1 [Compound 18] | > 50 µM | > 50 µM | 
5 |  | 15 ± 2.47 µM | COc1cc(NCC2CCNCC2)ccc1NC(=O)NCc1ccc(-c2ccccc2)cc1 [Compound 19] | > 50 µM | > 50 µM | 
6 |  | 16.7 ± 2.86 µM | NCCCNc1ccc(NC(=O)NCc2ccc(-c3ccccc3)cc2)c(C(F)(F)F)c1 [Compound 20] | 14.2 ± 4.81 µM | 11.3 ± 3.15 µM | apoptotic cells (JeKo‐1 cells [2]): 94.50 ± 3.12%
7 | n.b. |  | Nc1ccc(CNc2ccc(NC(=O)NCc3ccc(-c4ccccc4)cc3)c(C(F)(F)F)c2)cc1 [Compound 21] |  |  | 
8 | n.b. |  | Nc1ccc(CNc2ccc(NS(=O)(=O)c3ccc(-c4ccccc4)cc3)c(C(F)(F)F)c2)cc1 [Compound 26] |  |  | 
9 | n.b. |  | O=S(=O)(Nc1ccc(NCC2CCNCC2)cc1C(F)(F)F)c1ccc(-c2ccccc2)cc1 [Compound 27] |  |  | 
10 | n.b. |  | O=C(Nc1ccc(NCC2CCNCC2)cc1C(F)(F)F)c1ccc(-c2ccccc2)cc1 [Compound 28] |  |  | 
11 |  | 13.4 ± 1.92 µM | O=C(NCc1ccc(-c2ccccc2)cc1)Nc1ccc(NC2CCNCC2)cc1C(F)(F)F [Compound 29] | 18.5 ± 2.65 µM | 13.9 ± 2.75 µM | apoptotic cells (JeKo‐1 cells [2]): 73.15 ± 2.76%
12 |  |  | Cc1ccc(C(=O)Nc2ccc(CN3CCN(C)CC3)c(C(F)(F)F)c2)cc1C#Cc1cnc2cccnn12 [Ponatinib, 3‐(2‐imidazo[1,2‐b]pyridazin‐3‐ylethynyl)‐4‐methyl‐N‐[4‐[(4‐methylpiperazin‐1‐yl)methyl]‐3‐(trifluoromethyl)phenyl]benzamide, reference compound] | 4.25 ± 3.92 µM | 1.69 ± 1.03 µM | Kd (ROR1 kinase domain): 2.9 ± 0.85 µM
